Source: PubChem BioAssay AID1919005 (Molecular Pharmacology Branch, DTP, NCI, 2023)

Tested on: 855422-203-R-J1-PDC complex spheroid growth
Experiment: Anticancer human tumor 855422-203-R-J1-PDC patient-derived bladder carcinoma cell line growth inhibition [AhR]
Details: for IC50: curve of first compound; for viability, T/C: stronger effect = lower value
Outline: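 Spheroids combined tumor cells with HUVEC endothelial cells and human MSCs as stroma. AhR antagonists were paired with standard or investigational drugs, each dosed in half-log steps down from near clinical Cmax, or from 10 microM where Cmax was unknown.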

[1] = second compound 0.1 µM, first compound 0.000316 µM
[2] = second compound 0.1 µM, first compound 0.001 µM
[3] = second compound 0.1 µM, first compound 0.00316 µM
[4] = second compound 0.1 µM, first compound 0.01 µM
[5] = second compound 0.1 µM, first compound 0.0316 µM
[6] = second compound 0.1 µM, first compound 0.1 µM
[7] = second compound 0.316 µM, first compound 0.000316 µM
[8] = second compound 0.316 µM, first compound 0.001 µM
[9] = second compound 0.316 µM, first compound 0.00316 µM
[10] = second compound 0.316 µM, first compound 0.01 µM
[11] = second compound 0.316 µM, first compound 0.0316 µM
[12] = second compound 0.316 µM, first compound 0.1 µM
[13] = second compound 1 µM, first compound 0.000316 µM
[14] = second compound 1 µM, first compound 0.001 µM
[15] = second compound 1 µM, first compound 0.00316 µM
[16] = second compound 1 µM, first compound 0.01 µM
[17] = second compound 1 µM, first compound 0.0316 µM
[18] = second compound 1 µM, first compound 0.1 µM
[19] = second compound 3.16 µM, first compound 0.000316 µM
[20] = second compound 3.16 µM, first compound 0.001 µM
[21] = second compound 3.16 µM, first compound 0.00316 µM
[22] = second compound 3.16 µM, first compound 0.01 µM
[23] = second compound 3.16 µM, first compound 0.0316 µM
[24] = second compound 3.16 µM, first compound 0.1 µM
[25] = second compound 10 µM, first compound 0.000316 µM
[26] = second compound 10 µM, first compound 0.001 µM
[27] = second compound 10 µM, first compound 0.00316 µM
[28] = second compound 10 µM, first compound 0.01 µM
[29] = second compound 10 µM, first compound 0.0316 µM
[30] = second compound 10 µM, first compound 0.1 µM
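Note: spheroids exposed to agents for seven days before readout.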
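Throughout, for viability, T/C: percent of DMSO vehicle control luminescence viability.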

IC50 (second compound 0.1 µM) [nM] | IC50 (second compound 0.316 µM) [nM] | IC50 (second compound 1 µM) [nM] | IC50 (second compound 3.16 µM) [nM] | IC50 (second compound 10 µM) [nM] | SMILES | viability, T/C [1] [%] | viability, T/C [2] [%] | viability, T/C [3] [%] | viability, T/C [4] [%] | viability, T/C [5] [%] | viability, T/C [6] [%] | viability, T/C [7] [%] | viability, T/C [8] [%] | viability, T/C [9] [%] | viability, T/C [10] [%] | viability, T/C [11] [%] | viability, T/C [12] [%] | viability, T/C [13] [%] | viability, T/C [14] [%] | viability, T/C [15] [%] | also measured
> 100 | > 100 | > 100 | > 100 | > 100 | Cn1ncnc1C1c2n[nH]c(=O)c3cc(F)cc(c23)NC1c1ccc(F)cc1 (stereo not given) + CC(CO)NC(=O)c1cc(-c2ccc(Cl)cc2)nn(-c2cnn(C)c2)c1=O | 93.4 | 96.2 | 99.3 | 92.4 | 105 | 84.9 | 96.4 | 104 | 98.6 | 107 | 100 | 89.3 | 109 | 105 | 96.2 | viability, T/C [16]: 109%; viability, T/C [17]: 99%; viability, T/C [18]: 107%; viability, T/C [19]: 101%; viability, T/C [20]: 107%; viability, T/C [21]: 102%; viability, T/C [22]: 103%; viability, T/C [23]: 105%; viability, T/C [24]: 110%; viability, T/C [25]: 105%; viability, T/C [26]: 102%; viability, T/C [27]: 95.4%; viability, T/C [28]: 103%; viability, T/C [29]: 106%; viability, T/C [30]: 94%
86.1 | 65.1 | 62 | 31.9 | 30.5 | CC[C@@]1(O)C(=O)OCc2c1cc1n(c2=O)Cc2cc3c(CN(C)C)c(O)ccc3nc2-1 + Cc1ccccc1N=Nc1ccc(NC(=O)c2ccnn2C)c(C)c1 | 104 | 103 | 106 | 97.9 | 90.4 | 43.7 | 96.7 | 101 | 94.1 | 97.2 | 77.8 | 33.5 | 110 | 98.3 | 95.2 | viability, T/C [16]: 98.7%; viability, T/C [17]: 74.7%; viability, T/C [18]: 31.9%; viability, T/C [19]: 97.4%; viability, T/C [20]: 96.4%; viability, T/C [21]: 89.3%; viability, T/C [22]: 87.1%; viability, T/C [23]: 49.9%; viability, T/C [24]: 30.8%; viability, T/C [25]: 88.1%; viability, T/C [26]: 81.7%; viability, T/C [27]: 87.6%; viability, T/C [28]: 86.9%; viability, T/C [29]: 48.7%; viability, T/C [30]: 29.7%
